Columns and labels:
[1] = tested on: Arabidopsis thaliana Col-0 roots; experiment: [ROS]intra burst in roots, DCFH-DA fluorescent probe; type: cell-based; settings: mix of homologues, 10 µM, fold change at 20 min vs mock (DMSO 0.1%); n = 9 from three independent experiments; Figure 2B,C
Description: For cytoplasmic hydrogen peroxide (reflecting cytosolic/intracellular ROS and referred to hereafter as [ROS]intra) measurement in roots, 15 mm long Arabidopsis thaliana root segments, isolated from different two-week-old plants, were placed in a well (one root/well) of a microplate (96 Flat Black-Greiner Bio-One^TM CellStar^TM, Thermo Fisher Scientific, Hampton, VA, USA) filled with sterile water. After overnight incubation, roots were treated with 50 µM DCFH-DA (dichloro-dihydro-fluorescein diacetate; ACROS Organics, Geel, Belgium) for 10 min in the dark and rinsed with PBS, and next, wells were filled with CLP/mock solution. Fluorescence measurements (excitation wavelength 492 nm, emission wavelength 530 nm) were conducted by a Spark® (Tecan, Männedorf, Switzerland) microplate reader, using nine readings per well. Data, expressed as relative fluorescence increase, were obtained by subtracting the fluorescence measured at the first time point from the fluorescence measured at each time point (with the first time point being taken as 0). The fluorescence fold increase was defined for each repeat as the ratio between the fluorescence increase obtained at one time point for treatments and the mean fluorescence increase obtained at the same time point in mock-treated tissues.

Botrytis cinerea [2] = experiment: Induced systemic resistance (ISR) against B. cinerea leaf infection after root treatment; type: in vivo; settings: Arabidopsis thaliana Col-0, hydroponic, 10 µM at roots 24 h before leaf infection, scored 4 dpi vs mock (0.1% EtOH); n = 30 from two independent experiments; Figure 5
Description: (§1) Plants were grown for 4 weeks in hydroponic conditions in Araponics systems containing a nutrient solution (0.25% (v/v) FLORAMICRO®, 0.25% (v/v) FLORABLOOM®, 0.25% (v/v) FLORAGRO®; General Hydroponics®, in volume ratio 1:1:1, as recommended by the manufacturer), with a photoperiod of 12 h and a temperature of 22 °C. Plants were then transferred into 10 mL vials filled with fresh nutrient solution and treated at the root level with CLPs or ethanol (mock treatment) to obtain final concentrations of 10 µM and 0.1%, respectively. After incubation for 24 h, plants were inoculated with Botrytis cinerea (Helotiales: Sclerotiniaceae) as the conidia solution. Spores were collected from B. cinerea grown on PDA plates for 4 weeks using a solution composed of 1.75 g/L KH2PO4; 0.74 g/L MgSO4; 4 g/L glucose, and 0.02% (v/v) Tween 20. After spore collection, the concentration was adjusted to 5 × 10^5 spores per mL, and spores were incubated at 30 °C for eight hours. Inoculation was conducted by inoculating a drop of 3 µL of conidia solution onto seven leaves per plant and fifteen plants per treatment. The number of spreading lesions was evaluated 96 h post infection.

[3] = tested on: Arabidopsis thaliana roots; experiment: Intracellular NO (RNS burst) in roots, DAF-DA probe; type: cell-based; settings: for NO accumulation in roots vs mock: 10 µM, DAF-DA fluorescence fold change at 20 min vs mock (DMSO 0.1%), n = 12 from three independent experiments, Figure 3A,B
Description: For the detection of intracellular NO, roots were processed as described above and 200 µL sterile water was replaced by 200 µL 5 μM DAF-DA in a buffered solution (10 mM Tris/HCl, pH = 7.4). Roots were incubated at room temperature for 1 h in the absence of light and then washed 3 times with Tris/HCl (10 mM, pH = 7.4). The fluorescence emitted by DAF-DA was detected by excitation at 495 nm and emission at 515 nm. Experiments where NO was measured after pretreatment with the calcium channel blocker or calcium chelator included an additional step where LaCl3 (10 mM; Merck Chemicals SA, Hoeilaart, Belgium) or EGTA (1 mM; Merck Chemicals SA, Hoeilaart, Belgium) was added three minutes before treatments. Data were processed as described above for ROS. For NO measurements in protoplasts, the suspension was incubated in the same conditions before being distributed (50 µL) in microplate wells and treated with the CLPs at a 10 µM final concentration or with 0.1% DMSO as a mock.

[4] = UPLC-MS retention on C18 as relative hydrophobicity; type: physicochemical; settings: chromatographic, C18 (BEH C18 1.7 µm), water/ACN with 0.1% TFA gradient, 40 °C; order of homologue groups Srf, Liche, Pumi; Figure 1B,D,F
Source text: The purified material was freeze-dried (lyophilisator Martin Christ alpha 3–4 LSC BASIC) before storage. All the CLPs used in this research were freshly prepared from powder before each experiment. The concentration of Liche or Pumi was referred to the concentration of Srf and determined by MassHunter Workstation software (version B.09.00) after data collection from an Agilent Technologies 1290 Infinity (Santa Clara, CA, USA), with a C18 reversed-phase column (waters acquity premier BEH C18 1.7 µm 2.1 mm × 50 mm) being used at a flow rate of 0.6 mL/min and a temperature of 40 °C. […] That was coupled with a mass detector (Agilent Technologies 6530 Accurate-Mass Q-TOF LC/MS, Santa Clara, CA, USA) in positive mode, with the parameters set up as follows: drying gas temperature of 300 °C, drying gas of 8 L/min, nebulizer of 35 psi, sheath gas temperature of 350 °C, flow rate of sheath gas of 11 L/min, capillary voltage of 3.5 kV, nozzle voltage (expt) of 1 kV, fragmentor voltage of 175 V, skimmer voltage of 65 V, and octopole radiofrequency of 750 V. Accurate mass spectra were recorded in the m/z range of 100–1700. […]

Botrytis cinerea [5] = experiment: ISR against B. cinerea in myb72-2 knockout mutant; type: in vivo; settings: 10 µM Srf or mock (0.1% EtOH) before B. cinerea infection; n = 30 from two independent experiments; Figure 6C
Description: as §1

Substance	[ROS]intra production in roots vs mock [1]	Leaf infection by B. cinerea (disease level) after root treatment (Botrytis cinerea [2])	NO accumulation in roots vs mock [3]	UPLC-MS elution order (relative hydrophobicity) [4]	Srf-induced RNS (NO burst) in roots after pretreatment with Ca2+ chelator EGTA ([3]; EGTA 1 mM added three minutes before treatment, over 50 min, n = 8 from two independent experiments, Figure 4D)	Srf-induced RNS (NO burst) in roots after pretreatment with Ca2+ channel blocker LaCl3 ([3]; LaCl3 10 mM added three minutes before treatment, over 50 min, n = 8 from two independent experiments, Figure 4C)	ISR elicitor potential in myb72-2 knockout mutant compared to wild-type Col-0 (Botrytis cinerea [5])
lichenysin	induced a significantly higher production of [ROS]intra	significantly reduced leaf infection	–	–	–	–	–
pumilacidin	did not retain any significant triggering activity	no disease reduction	no impact	then Pumi	–	–	–
surfactin [Srf]	induced a significantly higher production of [ROS]intra	significantly reduced leaf infection	fast accumulation of NO	eluted first	abolished	abolished	fully conserved
